Measurements reported in patent US9822144B2, “Benzodiazepine dimers, conjugates thereof, and methods of making and using” (priority 2015, dated 2017).

Experiments:
Assay type in all cases: cell-based
[1] = test system: N87 gastric cancer cell line; experiment: Cytotoxic activity of dimers, ATP luminescence or MTS cell proliferation assay; settings: N87 gastric cancer cells, 72 h
Protocol: (§1) The cytotoxic activity of dimers of this invention was tested against H226 lung cancer, 786-O renal cancer, N87 gastric cancer, and/or OVCAR3 ovarian cancer cell lines. The ability of dimers to inhibit cell proliferation can be measured by either an ATP luminescence assay or an MTS cell proliferation assay.
(§2) This is a general procedure for an ATP luminescence assay: Cells are seeded at 1×10^3 cells/well in 96-well plates for 3 h for ATP CellTiterGlo™ assays, respectively. Serial dilutions (1:3) of compounds are added to the wells. Plates are allowed to incubate for 72 h. A CellTiterGlo™ cell viability kit from Promega is used to measure ATP content of cells treated with test compounds following manufacturer's instruction. A decrease in the ATP content is a measure of decrease in cellular viability. The EC50 value—the concentration at which an agent reduces cell viability by 50% of the maximum effect—can be calculated using PRISM™ software, version 5.0 (GraphPad Software, La Jolla, Calif., USA).
(§3) The MTS cell proliferation assay was performed as follows: CellTiter 96 Aqueous Non-Radioactive Cell proliferation Kit from Promega (Madison, Wis.) is used to determine the number of viable cells in cell proliferation assay. Tumor cells are plated at certain seeding densities in sterile 384-well black clear bottom Matrix plates at 40 μL per well and incubated overnight at 37° C. in 5% CO2 before assaying. On the next day, one set of cell plates (10 plates) is used to determine time zero cell density, and 3-(4,5-dimethylthiazol-2-yl)-5-(3-carboxymethoxyphenyl)-2-(4-sulfophenyl)-2H-tetrazolium is added at 4 μL/well into 10 plates followed by incubation at 37° C. in 5% CO2 for three hours. This tetrazolium reagent is bioreduced by […] to form a formazan product which is soluble in aqueous solution. Absorbance at 490 nm is measured on an Envision reader (Perkin Elmer, Boston, Mass.). On the same day, compounds are added into remaining cell plates (T72 plates) and incubated at 37° C. in 5% CO2. After 72 hours, 4 μL MTS reagents are then added into those cell plates. The plates are further incubated at 37° C. in 5% CO2 for three hours and the absorbance values at A490 were measured on an Envision reader.

[2] = test system: OVCAR3 ovarian cancer cell line; experiment: as above; settings: 72 h
Protocol: as §1, §2, §3

[3] = test system: H226 lung cancer cell line; experiment: as above; settings: 72 h
Protocol: as §1, §2, §3

[4] = test system: DMS 79 small-cell lung cancer cell line; experiment: Activity of dimers against small-cell lung cancer cell line (Table IB); settings: Homo sapiens, DMS 79 small-cell lung cancer cells
[5] = test system: H187 small-cell lung cancer cell line; experiment: as above; settings: Homo sapiens, NCI-H187, H187 small-cell lung cancer cells
[6] = Homo sapiens, OVCAR-3, OVCAR3 ovarian cancer cells
[7] = Homo sapiens, NCI-H226, H226 lung cancer cells

For COc1cc2c(cc1OCCCOc1cc3c(cc1OC)C(=O)N1Cc4ccccc4C[C@H]1C=N3)N=C[C@@H]1Cc3ccccc3CN1C2=O [IIa-01], the EC50 [1] was 16 pM and the EC50 [2, 6] was 150 pM.
COc1cc2c(cc1OCCCCCOc1cc3c(cc1OC)C(=O)N1Cc4ccccc4C[C@H]1C=N3)N=C[C@@H]1Cc3ccccc3CN1C2=O [IIa-02] gave an EC50 [1] of 49 to 150 pM, an EC50 ([2]; OVCAR3 ovarian cancer cells) of 77 to 120 pM and an EC50 ([3]; H226 lung cancer cells) of 46 to 180 pM.
With COc1cc2c(cc1OCCCOc1cc3c(cc1OC)C(=O)N1Cc4ccccc4C[C@H]1CN3)N=C[C@@H]1Cc3ccccc3CN1C2=O [IIa-03] the EC50 [1] was 460 pM, the EC50 ([2]; OVCAR3 ovarian cancer cells) was 180 pM and the EC50 ([3]; H226 lung cancer cells) was 410 pM.
COc1cc2c(cc1OCCCOc1cc3c(cc1OC)C(=O)N1Cc4ccccc4C[C@H]1CN3)NC[C@@H]1Cc3ccccc3CN1C2=O [IIa-04] gave an EC50 [1] of 5700 pM, an EC50 [2, 6] of 2600 pM and an EC50 [3, 7] of 8000 pM.
Work on COc1cc2c(cc1OCc1cc(N)cc(COc3cc4c(cc3OC)C(=O)N3Cc5ccccc5C[C@H]3C=N4)c1)N=C[C@@H]1Cc3ccccc3CN1C2=O [IIa-05, (6aS,6a′S)-3,3′-(((5-amino-1,3-phenylene)bis(methylene))bis(oxy))bis(2-methoxy-6a,7-dihydrobenzo[5,6][1,4]diazepino[1,2-b]isoquinolin-14(12H)-one)] yielded an EC50 [1] of 150 pM, an EC50 [2, 6] of 90 pM and an EC50 [3, 7] of 150 pM.
COc1cc2c(cc1OCCCCCOc1cc3c(cc1OC)C(=O)N1Cc4cc(N)ccc4C[C@H]1C=N3)N=C[C@@H]1Cc3ccccc3CN1C2=O [IIa-10] showed an EC50 [1] of 30 pM, an EC50 [2, 6] of 20 pM and an EC50 [3, 7] of 20 pM.
In the case of COc1cc2c(cc1OCCNCCOc1cc3c(cc1OC)C(=O)N1Cc4ccccc4C[C@H]1C=N3)N=C[C@@H]1Cc3ccccc3CN1C2=O [IIa-16, (6aS,6a′S)-3,3′-((azanediylbis(ethane-2,1-diyl))bis(oxy))bis(2-methoxy-6a,7-dihydrobenzo[5,6][1,4]diazepino[1,2-b]isoquinolin-14(12H)-one)], the EC50 [3, 7] is reported as 188 pM, the IC50 [4] is reported as 0.006 nM and the IC50 [5] is reported as 0.005 nM.
COc1cc2c(cc1OCC(N)COc1cc3c(cc1OC)C(=O)N1Cc4ccccc4C[C@H]1C=N3)N=C[C@@H]1Cc3ccccc3CN1C2=O [IIa-18] gave an EC50 ([3]; H226 lung cancer cells) of 3200 pM.
For COc1cc2c(cc1OCCNCCOc1cc3c(cc1OC)C(=O)N1Cc4ccccc4C[C@H]1CN3)N=C[C@@H]1Cc3ccccc3CN1C2=O [IIa-20], the EC50 [1] was 1300 pM.
For COc1cc2c(cc1OCc1cccc(COc3cc4c(cc3OC)C(=O)N3Cc5ccccc5C[C@H]3C=N4)c1)N=C[C@@H]1Cc3ccccc3CN1C2=O [IIa-21], the EC50 [1] was 20 pM.
COc1cc2c(cc1OCc1cc(COc3cc4c(cc3OC)C(=O)N3Cc5ccccc5C[C@H]3C=N4)cc(N=[N+]=[N-])c1)N=C[C@@H]1Cc3ccccc3CN1C2=O [IIa-22] gave an EC50 [1] of 50 pM.
COc1cc2c(cc1OCCCCCOc1cc3c(cc1OC)C(=O)N1Cc4ccccc4C[C@H]1C=N3)N=C[C@@H]1CCCN1C2=O [IIb-01] gave an EC50 [1] of 330 pM, an EC50 [2, 6] of 220 pM and an EC50 [3, 7] of 440 pM.
COc1ccc2c(c1)CN1C(=O)c3cc(OC)c(OCCCOc4cc5c(cc4OC)C(=O)N4C=C(c6ccc(N)cc6)C[C@H]4C=N5)cc3N=C[C@@H]1C2 [IIb-03] showed an EC50 [1] of 110 pM, an EC50 [2, 6] of 330 pM and an EC50 [3, 7] of 150 pM. For the same molecule, the IC50 [4] was 0.003 nM and the IC50 [5] was 0.002 nM.
With COc1cc2c(cc1OCCCCCOc1cc3c(cc1OC)C(=O)N1c4ccncc4C[C@H]1C=N3)N=C[C@@H]1Cc3ccccc3CN1C2=O [IIc-01] the EC50 [1] was 280 pM.
